Data taken from patent US10633379B2, “Bromodomain inhibitors” (AbbVie Inc., priority 2016, dated 2020).

Tests used:
[1] = Xenograft tumor growth inhibition assay, SKM-1 (AML); format: in vivo, Female SCID Beige mice; conditions: female, SCID Beige, in vivo, mouse SKM-1 xenograft, oral, read-out: AUC, mouse efficacy, AML (SKM-1)
[2] = system: SKM-1_FP1 xenograft tumors; experiment: as above; format: in vivo, Female SCID Beige mice; conditions: mouse SKM-1 xenograft, oral
BRD4 (BDI_K57-E168) = BRD4 (BDI_K57-E168) (Homo sapiens (Human), UniProt O60885); experiment: TR-FRET bromodomain binding assay, BRD4 BDI; conditions: mean Ki, calculated from IC50, probe Kd and probe concentration
Procedure, shortened: (§1)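 Probe displacement measured by TR-FRET after 1 h at room temperature, in 20 mM sodium phosphate pH 6.0 and 2% DMSO. BDI used 12 nM protein with 100 nM probe, BDII 4 nM with 30 nM probe, each with 1 nM europium antibody. Ki derived from fitted IC50, probe Kd and probe level.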

[3] = Xenograft tumor growth inhibition assay, LNCaP (prostate); format: in vivo, Male NSG mice; conditions: male, NSG, in vivo, mouse LNCaP xenograft, oral, read-out: AUC, mouse efficacy, Prostate (LNCaP)
Protocol: (§2) The effect of compound of Example 32, 35 and Compound X to inhibit the growth of SKM-1_FP1 and LNCaP-FGC xenograft tumors was evaluated. Female SCID Beige mice (Charles River) were utilized for the SKM-1_FP1 flank xenograft model. Male NSG mice (JAX Labs) were used for the LNCaP-FGC study. Cells were suspended in PBS, mixed with Matrigel (phenol red free, Becton Dickinson Biosciences Discovery Labware) in a ratio of 1:4 (V/V) and inoculated subcutaneously into the flank (five million cells per site) of the mice. Inoculated mice were randomized into groups and treatment was initiated when mean tumor volume was 0.2-0.25 cm^3. The compounds were administered orally in (volume %): 1.5% DMSO, 30% PEG 400, and 68.5% Phosol 53 MCT. Tumor growth in the flank was assessed by measuring tumor size with calipers and calculating volume using the formula (L×W^2/2). Study groups were terminated prior to tumor volume reaching 3 cm^3. Inhibition of tumor growth was assessed at the time the vehicle-treated group was terminated by calculating the ratio of the mean volume of the test drug group to the mean volume of the untreated (control) group (T/C) and calculating percent tumor growth inhibition (% TGI).

[4] = system: LNCaP-FGC xenograft tumors; experiment: as above; format: in vivo, Male NSG mice; conditions: mouse LNCaP xenograft, oral
Protocol: as §2

BRD4 (BDII_E352-M457) = BRD4 (BDII_E352-M457) (Homo sapiens (Human), UniProt O60885); experiment: TR-FRET bromodomain binding assay, BRD4 BDII; conditions: mean Ki, calculated from IC50, probe Kd and probe concentration
Procedure, shortened: as §1

[5] = Fourteen day rat toxicology study, maximum tolerated exposure; conditions: for AUC at 14 day: po
Protocol: Compounds were dosed orally once daily, in Sprague-Dawley rats.

[6] = Sprague-Dawley, rat, in vivo, 14 day
[7] = Sprague-Dawley, rat, in vivo, 30 mg/kg

Molecule | Ki (BRD4 (BDI_K57-E168)) [nM] | Ki (BRD4 (BDII_E352-M457)) [nM] | further results
CCS(=O)(=O)Nc1ccc(Oc2ccc(F)cc2F)c(-c2cn(C)c(=O)c3[nH]ccc23)c1 [Compound X, N-[4-(2,4-difluorophenoxy)-3-(6-methyl-7-oxo-6,7-dihydro-1H-pyrrolo[2,3-c]pyridin-4-yl)phenyl]ethanesulfonamide, reference compound] | 2.09 | 0.952 | AUC ([1]; dose 1 mg/kg): 1200 ng·h/mL; % TGI, AML (SKM-1) ([2]; dose 1 mg/kg): 76%; AUC ([3]; dose 1 mg/kg): 1200 ng·h/mL; % TGI, Prostate (LNCaP) ([4]; dose 1 mg/kg): 64%; AUC at 14 day ([5]; Sprague-Dawley, rat, in vivo, 1 mg/kg): 725 ng·h/mL; AUC ratio (rat maximum tolerated exposure/mouse efficacious exposure) Prostate (LNCaP) ([5]; exposure margin versus mouse LNCaP xenograft): 0.6x; AUC ratio (rat maximum tolerated exposure/mouse efficacious exposure) AML (SKM-1) ([5]; exposure margin versus mouse SKM-1 xenograft): 0.6x
Cc1cccc(C)c1Oc1ccc(C(C)(C)O)cc1-c1cn(C)c(=O)c2[nH]c(C(=O)NC(C)(C)C)cc12 [Example 32, N-tert-butyl-4-[2-(2,6-dimethylphenoxy)-5-(2-hydroxypropan-2-yl)phenyl]-6-methyl-7-oxo-6,7-dihydro-1H-pyrrolo[2,3-c]pyridine-2-carboxamide] | 599 | 2.8 | AUC ([1]; dose 9.4 mg/kg): 5000 ng·h/mL; % TGI, AML (SKM-1) ([2]; dose 9.4 mg/kg): 76%; AUC ([3]; dose 30 mg/kg): 12600 ng·h/mL; % TGI, Prostate (LNCaP) ([4]; dose 30 mg/kg): 60%; AUC ratio (rat maximum tolerated exposure/mouse efficacious exposure) AML (SKM-1) [5, 6]: 14x; AUC ratio (rat maximum tolerated exposure/mouse efficacious exposure) Prostate (LNCaP) [5, 6]: 5.5x; AUC at 14 day [5, 7]: 69200 ng·h/mL
CCNC(=O)c1cc2c(-c3cc(C(C)(C)O)ccc3Oc3c(C)cc(F)cc3C)cn(C)c(=O)c2[nH]1 [Example 35, N-ethyl-4-[2-(4-fluoro-2,6-dimethylphenoxy)-5-(2-hydroxypropan-2-yl)phenyl]-6-methyl-7-oxo-6,7-dihydro-1H-pyrrolo[2,3-c]pyridine-2-carboxamide] | – | – | AUC ([1]; dose 4.7 mg/kg): 840 ng·h/mL; % TGI, AML (SKM-1) ([2]; dose 4.7 mg/kg): 74%; AUC ([3]; dose 4.7 mg/kg): 1100 ng·h/mL; % TGI, Prostate (LNCaP) ([4]; dose 4.7 mg/kg): 64%; AUC at 14 day [5, 7]: 27500 ng·h/mL
Cc1cccc(C)c1Oc1ccc(C(C)(C)O)cc1-c1cn(C)c(=O)c2[nH]c(C(N)=O)cc12 [Example 117, 4-[2-(2,6-dimethylphenoxy)-5-(2-hydroxypropan-2-yl)phenyl]-6-methyl-7-oxo-6,7-dihydro-1H-pyrrolo[2,3-c]pyridine-2-carboxamide] | 215 | 1.5 | –
Cc1cc(F)cc(Cl)c1Oc1ccc(C(C)(O)CO)cc1-c1cn(C)c(=O)c2[nH]c(C(=O)NC(C)(C)C)cc12 (stereo not drawn) [Example 118, N-tert-butyl-4-[2-(2-chloro-4-fluoro-6-methylphenoxy)-5-(1,2-dihydroxypropan-2-yl)phenyl]-6-methyl-7-oxo-6,7-dihydro-1H-pyrrolo[2,3-c]pyridine-2-carboxamide] | 1390 | 10.4 | –
CCNC(=O)c1cc2c(-c3cc(C(C)(O)CO)ccc3Oc3c(C)cc(F)cc3Cl)cn(C)c(=O)c2[nH]1 (stereo not drawn) [Example 119, 4-[2-(2-chloro-4-fluoro-6-methylphenoxy)-5-(1,2-dihydroxypropan-2-yl)phenyl]-N-ethyl-6-methyl-7-oxo-6,7-dihydro-1H-pyrrolo[2,3-c]pyridine-2-carboxamide] | 346 | 2.2 | –
CNC(=O)c1cc2c(-c3cc(C(C)(C)O)ccc3Oc3c(C)cc(F)cc3C)cn(C)c(=O)c2[nH]1 [Example 120, 4-[2-(4-fluoro-2,6-dimethylphenoxy)-5-(2-hydroxypropan-2-yl)phenyl]-N,6-dimethyl-7-oxo-6,7-dihydro-1H-pyrrolo[2,3-c]pyridine-2-carboxamide] | 161 | 0.8 | –
Cc1cc(F)cc(C)c1Oc1ccc(C(C)(C)O)cc1-c1cn(C)c(=O)c2[nH]c(C(=O)NC3CC3)cc12 [Example 121, N-cyclopropyl-4-[2-(4-fluoro-2,6-dimethylphenoxy)-5-(2-hydroxypropan-2-yl)phenyl]-6-methyl-7-oxo-6,7-dihydro-1H-pyrrolo[2,3-c]pyridine-2-carboxamide] | 356 | 0.6 | –
CCNC(=O)c1cc2c(-c3cc(C4(O)CCC4)ccc3Oc3c(C)cc(F)cc3C)cn(C)c(=O)c2[nH]1 [Example 122, N-ethyl-4-[2-(4-fluoro-2,6-dimethylphenoxy)-5-(1-hydroxycyclobutyl)phenyl]-6-methyl-7-oxo-6,7-dihydro-1H-pyrrolo[2,3-c]pyridine-2-carboxamide] | 308 | 2 | –
CCNC(=O)c1cc2c(-c3cc(C4(O)COC4)ccc3Oc3c(C)cc(F)cc3C)cn(C)c(=O)c2[nH]1 [Example 123, N-ethyl-4-[2-(4-fluoro-2,6-dimethylphenoxy)-5-(3-hydroxyoxetan-3-yl)phenyl]-6-methyl-7-oxo-6,7-dihydro-1H-pyrrolo[2,3-c]pyridine-2-carboxamide] | 168 | 1 | –
CCNC(=O)c1cc2c(-c3cc(C(C)(C)O)cnc3Oc3c(C)cc(C(C)(C)O)cc3C)cn(C)c(=O)c2[nH]1 [Example 124, N-ethyl-4-{5-(2-hydroxypropan-2-yl)-2-[4-(2-hydroxypropan-2-yl)-2,6-dimethylphenoxy]pyridin-3-yl}-6-methyl-7-oxo-6,7-dihydro-1H-pyrrolo[2,3-c]pyridine-2-carboxamide] | 269 | 1.7 | –
Cc1cc(C(C)(C)O)cc(C)c1Oc1ncc(C(C)(C)O)cc1-c1cn(C)c(=O)c2[nH]c(C(=O)NC(C)(C)C)cc12 [Example 125, N-tert-butyl-4-{5-(2-hydroxypropan-2-yl)-2-[4-(2-hydroxypropan-2-yl)-2,6-dimethylphenoxy]pyridin-3-yl}-6-methyl-7-oxo-6,7-dihydro-1H-pyrrolo[2,3-c]pyridine-2-carboxamide] | 140 | 3.5 | –
CCNC(=O)c1cc2c(-c3cc(C(C)(O)CO)ccc3Oc3c(C)cccc3C(F)(F)F)cn(C)c(=O)c2[nH]1 (stereo not drawn) [Example 126, 4-{5-(1,2-dihydroxypropan-2-yl)-2-[2-methyl-6-(trifluoromethyl)phenoxy]phenyl}-N-ethyl-6-methyl-7-oxo-6,7-dihydro-1H-pyrrolo[2,3-c]pyridine-2-carboxamide] | 1510 | 6.3 | –
Cc1cccc(C(F)(F)F)c1Oc1ccc(C(C)(O)CO)cc1-c1cn(C)c(=O)c2[nH]c(C(=O)NC(C)(C)C)cc12 (stereo not drawn) [Example 127, N-tert-butyl-4-{5-(1,2-dihydroxypropan-2-yl)-2-[2-methyl-6-(trifluoromethyl)phenoxy]phenyl}-6-methyl-7-oxo-6,7-dihydro-1H-pyrrolo[2,3-c]pyridine-2-carboxamide] | 6580 | 20.5 | –
CCNC(=O)c1cc2c(-c3cc(C(C)(O)CCCO)ccc3Oc3c(C)cc(F)cc3C)cn(C)c(=O)c2[nH]1 (stereo not drawn) [Example 128, 4-[5-(2,5-dihydroxypentan-2-yl)-2-(4-fluoro-2,6-dimethylphenoxy)phenyl]-N-ethyl-6-methyl-7-oxo-6,7-dihydro-1H-pyrrolo[2,3-c]pyridine-2-carboxamide] | 469 | 1.3 | –
CCNC(=O)c1cc2c(-c3cc(C4(O)CCOCC4)ccc3Oc3c(C)cc(F)cc3C)cn(C)c(=O)c2[nH]1 [Example 129, N-ethyl-4-[2-(4-fluoro-2,6-dimethylphenoxy)-5-(4-hydroxyoxan-4-yl)phenyl]-6-methyl-7-oxo-6,7-dihydro-1H-pyrrolo[2,3-c]pyridine-2-carboxamide] | 649 | 2.3 | –
N-tert-butyl-4-[2-(2,6-dimethylphenoxy)-5-(2-hydroxypropan-2-yl)pyridin-3-yl]-6-methyl-7-oxo-6,7-dihydro-1H-pyrrolo[2,3-c]pyridine-2-carboxamide [Example 50] | 318 | 1.3 | –
